The source of these data is publication PMC5218480 (PLoS ONE, 2017).

Each structure is given as a SMILES string.

The test system of the assay is MV-4-11 cells. In words: Gene expression microarray analysis (Affymetrix PrimeView) and GSEA. It counts as cell-based, human. Details: RFU PODN (11730768_x_at) / Fold change /veh PODN (11730768_x_at) / RFU LINC00158 (11744669_a_at) / Fold change /veh LINC00158 (11744669_a_at) / RFU DUSP10 (11751237_a_at) / Fold change /veh DUSP10 (11751237_a_at) / RFU ID3 (11757404_x_at) / Fold change /veh ID3 (11757404_x_at) / RFU PLEKHG5 (11737974_s_at) / Fold change /veh PLEKHG5 (11737974_s_at) / RFU LRRC4B (11730491_at) / Fold change /veh LRRC4B (11730491_at) / RFU GIMAP4 (11747438_a_at) / Fold change /veh GIMAP4 (11747438_a_at) / RFU KRT8 (11758183_x_at) / Fold change /veh KRT8 (11758183_x_at) / RFU CNN1 (11734310_a_at) / Fold change /veh CNN1 (11734310_a_at) / RFU VPS37D (11726825_at) / Fold change /veh VPS37D (11726825_at) / RFU C10orf10 (11716522_x_at) / Fold change /veh C10orf10 (11716522_x_at) / RFU KIR2DL2 /// KIR2DL4 /// KIR2DL5A /// KIR2DL5B /// KIR2DS1 /// KIR2DS2 /// KIR2DS3 /// KIR2DS4 /// KIR3DL3 /// KIR3DL3 /// KIR3DS1 (11738374_at) / Fold change /veh KIR2DL2 /// KIR2DL4 /// KIR2DL5A /// KIR2DL5B /// KIR2DS1 /// KIR2DS2 /// KIR2DS3 /// KIR2DS4 /// KIR3DL3 /// KIR3DL3 /// KIR3DS1 (11738374_at) / RFU C1QL1 (11718748_at) / Fold change /veh C1QL1 (11718748_at) / RFU TMPRSS4 (11747572_a_at) / Fold change /veh TMPRSS4 (11747572_a_at) / RFU HAMP (11756126_x_at) / Fold change /veh HAMP (11756126_x_at) / RFU RNFT2 (11725882_a_at) / Fold change /veh RNFT2 (11725882_a_at) / RFU NR4A2 (11747474_a_at) / Fold change /veh NR4A2 (11747474_a_at) / RFU ABCC12 (11746883_a_at) / Fold change /veh ABCC12 (11746883_a_at) / RFU TMEM136 (11760407_x_at) / Fold change /veh TMEM136 (11760407_x_at) / RFU CLDN22 /// WWC2 (11732394_at) / Fold change /veh CLDN22 /// WWC2 (11732394_at) / RFU HLA-DPB1 (11760878_x_at) / Fold change /veh HLA-DPB1 (11760878_x_at) / RFU SPINT1 (11716480_a_at) / Fold change /veh SPINT1 (11716480_a_at) / RFU GAP43 (11754022_s_at) / Fold change /veh GAP43 (11754022_s_at) / RFU A4GNT (11735810_at) / Fold change /veh A4GNT (11735810_at) / RFU PRB3 (11715151_x_at) / Fold change /veh PRB3 (11715151_x_at) / RFU TUBB4B (11761932_at) / Fold change /veh TUBB4B (11761932_at) / RFU CAPN14 (11732068_a_at) / Fold change /veh CAPN14 (11732068_a_at) / RFU TMCC2 (11721928_a_at) / Fold change /veh TMCC2 (11721928_a_at) / RFU IRGQ (11745062_a_at) / Fold change /veh IRGQ (11745062_a_at) / RFU FAM174B (11720279_a_at) / Fold change /veh FAM174B (11720279_a_at) / RFU TMPRSS4 (11748680_a_at) / Fold change /veh TMPRSS4 (11748680_a_at) / RFU FAM212B (11763350_a_at) / Fold change /veh FAM212B (11763350_a_at) / RFU PLEKHG5 (11743358_a_at) / Fold change /veh PLEKHG5 (11743358_a_at) / RFU ZSCAN30 (11745921_a_at) / Fold change /veh ZSCAN30 (11745921_a_at) / RFU CMKLR1 (11741424_a_at) / Fold change /veh CMKLR1 (11741424_a_at) / RFU LOC101060620 /// MAPK8IP1 (11723275_at) / Fold change /veh LOC101060620 /// MAPK8IP1 (11723275_at) / RFU SPTSSB (11747773_x_at) / Fold change /veh SPTSSB (11747773_x_at) / RFU PRSS12 (11739890_at) / Fold change /veh PRSS12 (11739890_at) / RFU BIN1 (11741810_x_at) / Fold change /veh BIN1 (11741810_x_at) / RFU WNT11 (11732464_a_at) / Fold change /veh WNT11 (11732464_a_at) / RFU C10orf10 (11716521_a_at) / Fold change /veh C10orf10 (11716521_a_at) / RFU C5orf56 (11738089_at) / Fold change /veh C5orf56 (11738089_at) / RFU CYB561 (11721691_x_at) / Fold change /veh CYB561 (11721691_x_at) / RFU ANKRD19P (11752326_a_at) / Fold change /veh ANKRD19P (11752326_a_at) / RFU OR2T12 /// OR2T33 /// OR2T8 (11738714_s_at) / Fold change /veh OR2T12 /// OR2T33 /// OR2T8 (11738714_s_at) / RFU VCAN (11748164_a_at) / Fold change /veh VCAN (11748164_a_at) / RFU JSRP1 (11732532_at) / Fold change /veh JSRP1 (11732532_at) / RFU KRTAP10-11 (11738290_x_at) / Fold change /veh KRTAP10-11 (11738290_x_at) / RFU MYO3A (11730013_a_at) / Fold change /veh MYO3A (11730013_a_at) / RFU EBF3 (11725865_a_at) / Fold change /veh EBF3 (11725865_a_at) / RFU CAMK2N1 (11719241_x_at) / Fold change /veh CAMK2N1 (11719241_x_at) / RFU C5orf56 (11738088_a_at) / Fold change /veh C5orf56 (11738088_a_at) / RFU OLFML3 (11715873_a_at) / Fold change /veh OLFML3 (11715873_a_at) / RFU LOC100653217 /// NTM (11731650_a_at) / Fold change /veh LOC100653217 /// NTM (11731650_a_at) / RFU MAPK11 (11762145_a_at) / Fold change /veh MAPK11 (11762145_a_at) / RFU FIZ1 (11724087_x_at) / Fold change /veh FIZ1 (11724087_x_at) / RFU OASL (11726364_x_at) / Fold change /veh OASL (11726364_x_at) / RFU SOX15 (11748057_x_at) / Fold change /veh SOX15 (11748057_x_at) / RFU CD79A (11719716_a_at) / Fold change /veh CD79A (11719716_a_at) / RFU HIST1H1D (11736915_at) / Fold change /veh HIST1H1D (11736915_at) / RFU CASKIN2 (11723855_a_at) / Fold change /veh CASKIN2 (11723855_a_at) / RFU LOC730098 (11760151_x_at) / Fold change /veh LOC730098 (11760151_x_at) / RFU OR4N2 (11742367_at) / Fold change /veh OR4N2 (11742367_at) / RFU PRRT2 (11749266_a_at) / Fold change /veh PRRT2 (11749266_a_at) / RFU SNX32 (11753110_a_at) / Fold change /veh SNX32 (11753110_a_at) / RFU CDHR5 (11726645_a_at) / Fold change /veh CDHR5 (11726645_a_at) / RFU RCAN1 (11760418_a_at) / Fold change /veh RCAN1 (11760418_a_at) / RFU FAM167A (11723789_a_at) / Fold change /veh FAM167A (11723789_a_at) / RFU FAM26E (11764081_at) / Fold change /veh FAM26E (11764081_at) / RFU ISYNA1 (11749810_s_at) / Fold change /veh ISYNA1 (11749810_s_at) / RFU ACY1 (11761880_at) / Fold change /veh ACY1 (11761880_at) / RFU 11764098_at / Fold change /veh 11764098_at / RFU SAMD14 (11745864_x_at) / Fold change /veh SAMD14 (11745864_x_at) / RFU NPB (11741838_a_at) / Fold change /veh NPB (11741838_a_at) / RFU TMPRSS6 (11731388_a_at) / Fold change /veh TMPRSS6 (11731388_a_at) / RFU KRTAP10-2 (11738614_at) / Fold change /veh KRTAP10-2 (11738614_at) / RFU ARHGAP8 /// PRR5-ARHGAP8 (11727945_x_at) / Fold change /veh ARHGAP8 /// PRR5-ARHGAP8 (11727945_x_at) / RFU KRTAP5-7 /// NADSYN1 (11734609_at) / Fold change /veh KRTAP5-7 /// NADSYN1 (11734609_at) / RFU RASL12 (11751679_a_at) / Fold change /veh RASL12 (11751679_a_at) / RFU CDKN2B (11736163_a_at) / Fold change /veh CDKN2B (11736163_a_at) / RFU PRF1 (11729649_at) / Fold change /veh PRF1 (11729649_at) / RFU, ZNF638 /// ZNF638-IT1 / Fold change vs veh, ZNF638 /// ZNF638-IT1 / RFU, PANK3 / Fold change vs veh, PANK3 / RFU, SH3YL1 / Fold change vs veh, SH3YL1 / RFU, ZEB2 / Fold change vs veh, ZEB2 / RFU, NRIP1 / Fold change vs veh, NRIP1 / RFU, PTTG1IP / Fold change vs veh, PTTG1IP / RFU, CAPN2 / Fold change vs veh, CAPN2 / RFU, MED14 / Fold change vs veh, MED14 / RFU, SNORA58 / Fold change vs veh, SNORA58 / RFU, C1orf63 / Fold change vs veh, C1orf63 / RFU, LRRFIP1 / Fold change vs veh, LRRFIP1 / RFU, NDUFAF7 / Fold change vs veh, NDUFAF7 / RFU, SLC12A2 / Fold change vs veh, SLC12A2 / RFU, IBTK / Fold change vs veh, IBTK / RFU, ESF1 / Fold change vs veh, ESF1 / Fold change vs veh, TMEM50B / RFU, TAOK1 / Fold change vs veh, TAOK1 / RFU, ACBD3 / Fold change vs veh, ACBD3 / RFU, TMA16 / Fold change vs veh, TMA16 / RFU, RWDD3 / Fold change vs veh, RWDD3 / RFU, BCAT1 / Fold change vs veh, BCAT1 / RFU, EDEM3 / Fold change vs veh, EDEM3 / RFU, TMEM33 / Fold change vs veh, TMEM33 / RFU, WDR75 / Fold change vs veh, WDR75 / RFU, AHCTF1 / Fold change vs veh, AHCTF1 / RFU, TFRC / Fold change vs veh, TFRC / RFU, ZDHHC17 / Fold change vs veh, ZDHHC17 / RFU, NOM1 / Fold change vs veh, NOM1 / RFU, ARL8B / Fold change vs veh, ARL8B / RFU, ZBTB11 / Fold change vs veh, ZBTB11 / RFU, TAMM41 / Fold change vs veh, TAMM41 / RFU, KIAA1704 /// LOC100996395 / Fold change vs veh, KIAA1704 /// LOC100996395 / RFU, ING1 / Fold change vs veh, ING1 / RFU, TRMT61B / Fold change vs veh, TRMT61B / RFU, FUBP3 / Fold change vs veh, FUBP3 / RFU, TP53 / Fold change vs veh, TP53 / RFU, TNKS2 / Fold change vs veh, TNKS2 / RFU, ZFP14 / Fold change vs veh, ZFP14 / RFU, ACTR2 / Fold change vs veh, ACTR2 / RFU, PPP3R1 / Fold change vs veh, PPP3R1 / RFU, PIK3R1 / Fold change vs veh, PIK3R1 / RFU, HNRNPA1 / Fold change vs veh, HNRNPA1 / RFU, RNF170 / Fold change vs veh, RNF170 / RFU, ZNF28 / Fold change vs veh, ZNF28 / RFU, RNGTT / Fold change vs veh, RNGTT / RFU, OGT / Fold change vs veh, OGT / RFU, BRD1 / Fold change vs veh, BRD1 / RFU, MARS / Fold change vs veh, MARS / RFU, ZNF655 / Fold change vs veh, ZNF655 / RFU, FAHD1 / Fold change vs veh, FAHD1 / RFU, BDP1 / Fold change vs veh, BDP1 / RFU, LRRCC1 / Fold change vs veh, LRRCC1 / RFU, ARID1A / Fold change vs veh, ARID1A / RFU, ZNF146 / Fold change vs veh, ZNF146 / RFU, ZNF330 / Fold change vs veh, ZNF330 / RFU, GPN3 / Fold change vs veh, GPN3 / RFU, C9orf123 / Fold change vs veh, C9orf123 / RFU, N4BP2L2 / Fold change vs veh, N4BP2L2 / RFU, ARFIP1 / Fold change vs veh, ARFIP1 / RFU, FAM179B / Fold change vs veh, FAM179B / RFU, BCL10 / Fold change vs veh, BCL10 / RFU, UHRF1BP1L / Fold change vs veh, UHRF1BP1L / RFU, BET1 / Fold change vs veh, BET1 / RFU, CNOT2 / Fold change vs veh, CNOT2 / RFU, ZNF268 / Fold change vs veh, ZNF268 / Fold change vs veh, ZNF507 / RFU, DGCR2 / Fold change vs veh, DGCR2 / RFU, WDSUB1 / Fold change vs veh, WDSUB1 / Fold change vs veh, HSP90B1 /// MIR3652 / RFU, ADSS / Fold change vs veh, ADSS / RFU, GK / Fold change vs veh, GK / RFU, ZNF148 / Fold change vs veh, ZNF148 / RFU, TAF9 / Fold change vs veh, TAF9 / RFU, SLC1A5 / Fold change vs veh, SLC1A5 / RFU, SLMO2 / Fold change vs veh, SLMO2 / RFU, ABCC4 / Fold change vs veh, ABCC4 / RFU, LOC101060439 /// RAP1B / Fold change vs veh, LOC101060439 /// RAP1B / RFU, RFX7 / Fold change vs veh, RFX7 / RFU, GTPBP10 / Fold change vs veh, GTPBP10 / RFU, CNEP1R1 / Fold change vs veh, CNEP1R1 / RFU, BIVM-ERCC5 /// ERCC5 / Fold change vs veh, BIVM-ERCC5 /// ERCC5 / RFU, ILF3 / Fold change vs veh, ILF3 / RFU 11762660_at / Fold change /veh 11762660_at / RFU VCAN (11757783_s_at) / Fold change /veh VCAN (11757783_s_at) / RFU DDX43 (11728927_at) / Fold change /veh DDX43 (11728927_at) / RFU KRT8 (11758188_x_at) / Fold change /veh KRT8 (11758188_x_at) / RFU NKD1 (11759106_at) / Fold change /veh NKD1 (11759106_at) / RFU SRD5A1 (11742802_a_at) / Fold change /veh SRD5A1 (11742802_a_at) / RFU TPSAB1 /// TPSB2 (11721975_s_at) / Fold change /veh TPSAB1 /// TPSB2 (11721975_s_at) / RFU GSTM3 (11746129_a_at) / Fold change /veh GSTM3 (11746129_a_at) / RFU IL23R (11737362_x_at) / Fold change /veh IL23R (11737362_x_at) / RFU TMEM51 (11727254_a_at) / Fold change /veh TMEM51 (11727254_a_at) / RFU PIWIL2 (11732686_x_at) / Fold change /veh PIWIL2 (11732686_x_at) / RFU ORM1 (11744905_x_at) / Fold change /veh ORM1 (11744905_x_at) / RFU CCDC152 (11743942_at) / Fold change /veh CCDC152 (11743942_at) / RFU ECM1 (11717891_a_at) / Fold change /veh ECM1 (11717891_a_at) / RFU IL23R (11748794_a_at) / Fold change /veh IL23R (11748794_a_at) / RFU TNFAIP8L3 (11732012_x_at) / Fold change /veh TNFAIP8L3 (11732012_x_at) / RFU MBOAT4 (11741988_at) / Fold change /veh MBOAT4 (11741988_at) / RFU 11764193_at / Fold change /veh 11764193_at / RFU TMEM53 (11763286_at) / Fold change /veh TMEM53 (11763286_at) / RFU MAGEB2 (11727129_at) / Fold change /veh MAGEB2 (11727129_at) / RFU TMEM200A (11744735_a_at) / Fold change /veh TMEM200A (11744735_a_at) / RFU CCDC152 (11751479_a_at) / Fold change /veh CCDC152 (11751479_a_at) / RFU FAM211A (11726209_a_at) / Fold change /veh FAM211A (11726209_a_at) / RFU RGS16 (11746705_a_at) / Fold change /veh RGS16 (11746705_a_at) / RFU VCAN (11755009_s_at) / Fold change /veh VCAN (11755009_s_at) / RFU RHOB (11743442_s_at) / Fold change /veh RHOB (11743442_s_at) / RFU RGS16 (11720943_a_at) / Fold change /veh RGS16 (11720943_a_at) / RFU RGS16 (11720944_at) / Fold change /veh RGS16 (11720944_at) / RFU, VPS4B / Fold change vs veh, VPS4B / RFU, CREB1 / Fold change vs veh, CREB1 / RFU, DNAJC13 / Fold change vs veh, DNAJC13 / RFU, GNAQ / Fold change vs veh, GNAQ / RFU, CDK5R1 / Fold change vs veh, CDK5R1 / RFU, ZRANB3 / Fold change vs veh, ZRANB3 / RFU, CUL4A / Fold change vs veh, CUL4A / RFU, CCNY / Fold change vs veh, CCNY / RFU, UFL1 / Fold change vs veh, UFL1 / RFU, COG3 / Fold change vs veh, COG3 / RFU, DIAPH2 / Fold change vs veh, DIAPH2 / RFU, SKA2 / Fold change vs veh, SKA2 / RFU, AFF3 / Fold change vs veh, AFF3 / RFU, LMF1 / Fold change vs veh, LMF1 / RFU, IPO11 / Fold change vs veh, IPO11 / RFU, DFFB / Fold change vs veh, DFFB / RFU, FOXP1 / Fold change vs veh, FOXP1 / RFU, CARD8 / Fold change vs veh, CARD8 / RFU, STRN3 / Fold change vs veh, STRN3 / RFU, ADK / Fold change vs veh, ADK / RFU, RASSF2 / Fold change vs veh, RASSF2 / RFU, WIPF1 / Fold change vs veh, WIPF1 / RFU, LARP1B / Fold change vs veh, LARP1B / RFU, RASA1 / Fold change vs veh, RASA1 / RFU, RB1 / Fold change vs veh, RB1 / RFU, PPFIA1 / Fold change vs veh, PPFIA1 / RFU, MAT2A / Fold change vs veh, MAT2A / RFU, CCT5 / Fold change vs veh, CCT5 / RFU, WDR92 / Fold change vs veh, WDR92 / RFU, CUX1 / Fold change vs veh, CUX1 / RFU, TTC7A / Fold change vs veh, TTC7A / RFU, TMEM135 / Fold change vs veh, TMEM135 / RFU, DEPTOR / Fold change vs veh, DEPTOR / RFU, CPM / Fold change vs veh, CPM / RFU, DNAJB6 / Fold change vs veh, DNAJB6 / RFU, CACNA2D3 / Fold change vs veh, CACNA2D3 / RFU, DTX4 / Fold change vs veh, DTX4 / RFU, TFCP2 / Fold change vs veh, TFCP2 / RFU, GMCL1 /// GMCL1P1 / Fold change vs veh, GMCL1 /// GMCL1P1 / RFU, AEBP2 / Fold change vs veh, AEBP2 / RFU, SNHG1 /// SNORD22 /// SNORD25 /// SNORD26 /// SNORD27 /// SNORD28 /// SNORD29 /// SNORD31 / Fold change vs veh, SNHG1 /// SNORD22 /// SNORD25 /// SNORD26 /// SNORD27 /// SNORD28 /// SNORD29 /// SNORD31 / Fold change (Aza/veh), C12orf56 (ProbeSet 11735607_a_at) / Fold change (ACY-1035/veh), C12orf56 (ProbeSet 11735607_a_at) / Fold change (Aza/veh), FGFR1OP (ProbeSet 11751329_s_at) / Fold change (ACY-1035/veh), FGFR1OP (ProbeSet 11751329_s_at) / Fold change (Aza/veh), VPS36 (ProbeSet 11739960_a_at) / Fold change (ACY-1035/veh), VPS36 (ProbeSet 11739960_a_at) / RFU SYPL1 (11715823_x_at) / Fold change /veh SYPL1 (11715823_x_at) / RFU IGFBP7 (11715501_s_at) / Fold change /veh IGFBP7 (11715501_s_at) / RFU REEP3 (11722064_at) / Fold change /veh REEP3 (11722064_at) / RFU IGLL1 (11728026_x_at) / Fold change /veh IGLL1 (11728026_x_at): dose or concentration left out as unconfirmed. As to conditions: ProbeSet 11730501_a_at; LIST D.

Take `Nc1ccc(-c2cccs2)cc1NC(=O)c1ccc2c(c1)cc(C1CC1)n2CCN1CCOCC1` [ACY-1035]: the “RFU, CACNA2D3” value stood at 202.11 RFU.
